# What was measured:
# Assay in all cases: Test E greenhouse herbicide test, pre- and postemergence
# Assay type in all cases: in vivo
# [1] = system: beggarticks (hairy beggarticks, Bidens pilosa)
# In short: (§1)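 Seedlings reaching 2–18 cm (1- to 4-leaf stage) received foliar treatment, while seeds in silt loam received a soil surface spray; the vehicle in each case was a non-phytotoxic solvent mixture including surfactant. Visual scoring versus controls followed 14–21 d later on a 0–100 scale.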
# [2] = system: crabgrass, large (large crabgrass, Digitaria sanguinalis); settings: Preemergence
# In short: as §1
# [3] = system: field bindweed (Convolvulus arvensis)
# In short: as §1
# [4] = system: foxtail, giant (giant foxtail, Setaria faberii); settings: Preemergence
# In short: as §1
# [5] = system: johnsongrass (Sorghum halepense); settings: Preemergence
# In short: as §1
# kochia (Kochia scoparia) = system: kochia (Kochia scoparia)
# In short: as §1
# [6] = system: lambsquarters (Chenopodium album); settings: Preemergence
# In short: as §1
# [7] = system: pigweed, palmer (palmer pigweed, Amaranthus palmeri)
# In short: as §1
# [8] = system: surinam grass (Brachiaria decumbens); settings: Preemergence
# In short: as §1
# [9] = system: velvetleaf (Abutilon theophrasti); settings: Preemergence
# In short: as §1
# [10] = system: waterhemp (common waterhemp, Amaranthus rudis)
# In short: as §1
# [11] = 62 g ai/ha, Preemergence, scale 0 to 100 (0 no effect, 100 complete control)
# [12] = Preemergence, 31 g ai/ha, scale 0 to 100, 0 no effect, 100 complete control
# [13] = Preemergence, 125 g ai/ha, visual, scale 0 no effect to 100 complete control
# [14] = 62 g ai/ha, scale 0 to 100 (0 no effect, 100 complete control)
# [15] = 31 g ai/ha, scale 0 to 100, 0 no effect, 100 complete control
# [16] = 125 g ai/ha, visual, scale 0 no effect to 100 complete control
# [17] = 125 g ai/ha, Preemergence, scale 0 to 100 (0 no effect, 100 complete control)
# [18] = 125 g ai/ha, scale 0 to 100 (0 no effect, 100 complete control)
# [19] = 62 g ai/ha, Postemergence, scale 0 to 100 (0 no effect, 100 complete control)
# [20] = 125 g ai/ha, Postemergence, scale 0 to 100 (0 no effect, 100 complete control)
# [21] = 250 g ai/ha, Postemergence, scale 0 to 100 (0 no effect, 100 complete control)
# [22] = Postemergence, 31 g ai/ha, visual, scale 0 no effect to 100 complete control
structure (smiles),measurement,setting,value
Cc1cc(C)c2ccccc2c1-c1c(O)c(C)nn(C)c1=O [Compound 21],"Plant response rating, Beggarticks",[1]; [11],100
same,"Plant response rating, Beggarticks",[1]; [12],100
same,"Plant response rating, Beggarticks",[1]; [13],100
same,"Plant response rating, Crabgrass, Large",[2]; [14],85
same,"Plant response rating, Crabgrass, Large",[2]; [15],65
same,"Plant response rating, Crabgrass, Large",[2]; [16],100
same,"Plant response rating, Field Bindweed",[3]; [11],95
same,"Plant response rating, Field Bindweed",[3]; [12],35
same,"Plant response rating, Field Bindweed",[3]; [13],98
same,"Plant response rating, Foxtail, Giant",[4]; [14],98
same,"Plant response rating, Foxtail, Giant",[4]; [15],95
same,"Plant response rating, Foxtail, Giant",[4]; [16],100
same,"Plant response rating, Johnsongrass",[5]; [14],20
same,"Plant response rating, Johnsongrass",[5]; [16],60
same,"Plant response rating, Kochia",kochia (Kochia scoparia); [11],0
same,"Plant response rating, Kochia",kochia (Kochia scoparia); [12],0
same,"Plant response rating, Kochia",kochia (Kochia scoparia); [13],65
same,"Plant response rating, Lambsquarters",[6]; [14],100
same,"Plant response rating, Lambsquarters",[6]; [15],100
same,"Plant response rating, Lambsquarters",[6]; [16],100
same,"Plant response rating, Pigweed, Palmer",[7]; [11],70
same,"Plant response rating, Pigweed, Palmer",[7]; [17],98
same,"Plant response rating, Pigweed, Palmer",[7]; [12],65
same,"Plant response rating, Surinam Grass",[8]; [14],100
same,"Plant response rating, Surinam Grass",[8]; [18],100
same,"Plant response rating, Surinam Grass",[8]; [15],95
same,"Plant response rating, Velvetleaf",[9]; [14],90
same,"Plant response rating, Velvetleaf",[9]; [18],90
same,"Plant response rating, Velvetleaf",[9]; [15],80
same,"Plant response rating, Waterhemp",[10]; [11],95
same,"Plant response rating, Waterhemp",[10]; [17],100
same,"Plant response rating, Waterhemp",[10]; [12],95
Cc1nn(C)c(=O)c(-c2cccc3ccc(Br)cc23)c1O [Compound 126],"Plant response rating, Beggarticks",[1]; [19],100
same,"Plant response rating, Beggarticks",[1]; [20],100
same,"Plant response rating, Beggarticks",[1]; [21],100
same,"Plant response rating, Beggarticks",[1]; [22],100
same,"Plant response rating, Field Bindweed",[3]; [19],90
same,"Plant response rating, Field Bindweed",[3]; [20],95
same,"Plant response rating, Field Bindweed",[3]; [21],100
same,"Plant response rating, Field Bindweed",[3]; [22],85
same,"Plant response rating, Kochia",kochia (Kochia scoparia); [19],100
same,"Plant response rating, Kochia",kochia (Kochia scoparia); [20],100
same,"Plant response rating, Kochia",kochia (Kochia scoparia); [21],100
same,"Plant response rating, Kochia",kochia (Kochia scoparia); [22],100
same,"Plant response rating, Pigweed, Palmer",[7]; [19],50
same,"Plant response rating, Pigweed, Palmer",[7]; [20],50
same,"Plant response rating, Pigweed, Palmer",[7]; [21],80
same,"Plant response rating, Pigweed, Palmer",[7]; [22],40
same,"Plant response rating, Waterhemp",[10]; [20],90
same,"Plant response rating, Waterhemp",[10]; [21],90
same,"Plant response rating, Waterhemp",[10]; [22],75

# — patent US10597388B2, “Pyridazinone herbicides” (FMC CORPORATION, priority 2014, dated 2020)
